According to patent US12285487B2, “Liquid topical pharmaceutical nano-emulsion formulations” (JRX BIOTECHNOLOGY, INC., priority 2012, dated 2025):

Columns and labels:
Assay type in all cases: physicochemical
[1] = Particle size analysis by laser diffraction of neat API; conditions: for Particle Size Mean / Particle Size Median / Particle Size Mode: dispersed in cyclohexane
From the text: For particle size analysis, by laser diffraction (LD), a small sample of the dry powder was dispersed into cyclohexane with sonication and then diluted to an appropriate signal level. The optical microscope was a Zeiss Model Std 25 fitted with a 40× objective. […] The Raman spectrometer was a Horiba XploRA Raman Microscope.

[2] = Optical microscopic examination of neat API dry powder; conditions: for estimates of size range by optical microscopy: 400× magnification
From the text: Neat API: For optical microscopic/image analysis examination the material was used as received. A small aliquot was placed on a clean microscope slide and a clean glass coverslip placed on top.
(§1) The optical microscope was a Zeiss Model Std 25 fitted with a 40× objective. The particle size analyzers were the Horiba LA 950 (LD) and a Malvern NanoSizer 90Z (DLS). The Raman spectrometer was a Horiba XploRA Raman Microscope.

[3] = Particle size analysis by Dynamic Light Scattering (Example 8); conditions: DLS intensity data
From the text: as §1

[4] = Particle size of aspirin formulation vs dry aspirin (Example 4, DLS Z-average)
Procedure: The particle size of aspirin (dry powder) and the aspirin diluted in the dermal and/or transdermal liquid formulation set forth in Example 1 were compared. Two studies were carried out to determine the particle size (and distribution) of samples of: (i) the formulation of Example 1, lacking only the aspirin (delivery system control), (ii) the formulation of Example 1, including the aspirin (experimental) and (iii) pure (dry) aspirin (control).

Compound	Particle Size Mean [1]	Particle Size Median [1]	Particle Size Mode [1]	particle size prior to formulation [2]	estimates of size range by optical microscopy [2]	presence of particles as large as [3]	size of the majority of particles [1]	size relative to aspirin in the formulation of Example 1 ([4]; dry aspirin vs formulated aspirin)	average particle size ([4]; dry aspirin, prior to formulation)
CC(=O)Nc1ccc(O)cc1 [Acetaminophen, N-acetyl-para-aminophenol]	58 μm	44 μm	42 μm	1-100 microns	from around one or two microns (μm) to over 100 μm	–	–	–	–
Neat Insulin: insulin supplied as an aqueous solution/suspension	–	–	–	–	–	≤ 5 μm	–	–	–
CC(C(=O)O)c1cccc(C(=O)c2ccccc2)c1 (racemic) [Ketoprofen, (RS)2-(3-benzoylphenyl)-propionic acid]	34 μm	27 μm	28 μm	–	–	–	about 30 μm	–	–
CC(=O)Oc1ccccc1C(=O)O [pure (dry) Aspirin, acetylsalicylic acid]	–	–	–	–	–	–	–	more than 10,000 times	670 microns
CC(C)Cc1ccc(C(C)C(=O)O)cc1 (stereo not drawn) [Ibuprofen, iso-butyl-propanoic-phenolic acid]	78 μm	70 μm	72 μm	–	from around 10 μm to over 100 μm	–	–	–	–
COc1ccc2cc(C(C)C(=O)O)ccc2c1 (stereo not drawn) [Naproxen, 2-(6-methoxynaphthalen-2-yl)propanoic acid]	23 μm	23 μm	19 μm	–	singlet particles of only a few microns in size and aggregates as large as 100 μm	–	around 20 μm	–	–
